Tested on: human patient
Conditions: sodium nitrite in phosphate buffered saline infused at 1 micromole per minute, begun before red blood cell transfusion

O=NO [sodium nitrite]
adverse effect of red blood cell transfusion: without adverse effect

— patent US8075922B2, “Method of co-infusing a deoxygenated hemoglobin containing blood substitute and inorganic nitrite” (Montana State University-Bozeman, priority 2002, dated 2011)
